Data: the supplement of paper PMC11451515

System: NOMO1
Assay: cell viability relative to DMSO control; higher = less cytotoxic
Conditions: 48 h
Method in brief: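 In 1536-well plates, 5 μl of leukemia cells were seeded per well: 500 cells/well for NOMO1 or SEM and 1000 cells/well for P12-Ichikawa. Each line had first been adapted for at least four passages in each medium. Library compounds in DMSO were pin-dosed at 11 threefold concentrations between 47 μM and 0.79 nM, and CellTiter-Glo One luminescence was read after 48 h at 37°C. Viability is a per-plate percentage relative to DMSO wells, with cell-free wells as background.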

[1] = RPMI 5 mM glucose + 10% FBS, 0.000781 µM
[2] = RPMI 5 mM glucose + 10% FBS, 0.00234 µM
[3] = RPMI 5 mM glucose + 10% FBS, 0.00702 µM
[4] = RPMI 5 mM glucose + 10% FBS, 0.0211 µM
[5] = RPMI 5 mM glucose + 10% FBS, 0.0632 µM
[6] = RPMI 5 mM glucose + 10% FBS, 0.19 µM
[7] = RPMI 5 mM glucose + 10% FBS, 0.569 µM
[8] = RPMI 5 mM glucose + 10% FBS, 1.71 µM
[9] = RPMI 5 mM glucose + 10% FBS, 5.12 µM
[10] = RPMI 5 mM glucose + 10% FBS, 15.4 µM
[11] = RPMI 5 mM glucose + 10% FBS, 46.1 µM

CC[C@@]1(O)C(=O)OCC/2=C1/C=C3\N(CC4=CC5=CC(=CC=C5N=C34)O)C2=O was tested, and the cell viability [1] was 116%, the cell viability [2] was 123% and the cell viability [3] was 133%. The cell viability [4] was 107%, the cell viability [5] was 113% and the cell viability [6] was 33.3%. The cell viability [7] was 23.8%, the cell viability [8] was 22.6% and the cell viability [9] was 18.6%. The cell viability [10] was 22.8%, the cell viability [11] was 13.4% and the cell viability (RPMI 5 mM glucose + 10% dialyzed FBS, 0.000781 µM) was 111%. The cell viability (RPMI 5 mM glucose + 10% dialyzed FBS, 0.00234 µM) was 124%, the cell viability (RPMI 5 mM glucose + 10% dialyzed FBS, 0.00702 µM) was 117% and the cell viability (RPMI 5 mM glucose + 10% dialyzed FBS, 0.0211 µM) was 117%. The cell viability (RPMI 5 mM glucose + 10% dialyzed FBS, 0.0632 µM) was 121%, the cell viability (RPMI 5 mM glucose + 10% dialyzed FBS, 0.19 µM) was 40.4% and the cell viability (RPMI 5 mM glucose + 10% dialyzed FBS, 0.569 µM) was 23.8%. For the same compound, the cell viability (RPMI 5 mM glucose + 10% dialyzed FBS, 1.71 µM) was 25.8%, the cell viability (RPMI 5 mM glucose + 10% dialyzed FBS, 5.12 µM) was 24.5% and the cell viability (RPMI 5 mM glucose + 10% dialyzed FBS, 15.4 µM) was 26.4%. The cell viability (RPMI 5 mM glucose + 10% dialyzed FBS, 46.1 µM) was 9.6%.
Compound Nc1cc(C(F)(F)F)c(-c2cc(N3CCOCC3)nc(N3CCOCC3)n2)cn1 has a cell viability [1] of 115%, a cell viability [2] of 127% and a cell viability [3] of 118%. It also gave a cell viability [4] of 133%, a cell viability [5] of 130% and a cell viability [6] of 120%. It also gave a cell viability [7] of 98.4%, a cell viability [8] of 74.5% and a cell viability [9] of 14.8%. It also gave a cell viability [10] of 6.77% and a cell viability [11] of 7.91%.
